Literature values in PubChem BioAssay AID1259409 (Chemical Carcinogenesis Research Information System (CCRIS), 2018).

System: rodent chemically induced tumor inhibition, incidence and multiplicity
Test: CCRIS tumor inhibitor studies
Conditions: Dose [Inhibitor]: 0, Route [Inhibitor]: ORAL, Promoter: NONE USED

For CN1C(C(=O)Nc2ccccn2)=C(O)c2ccccc2S1(=O)=O, the “tumour outcome (control, treated, inhibition, significance)” value (Carcinogen: 2-ACETYLAMINOFLUORENE, 53-96-3, 130 PPM IN DIET FOR 18 WK BEGINNING 1 WK PRIOR TO CARCINOGEN TREATMENT (STUDY DURATION: 36 WK), Species: RAT, Strain/Sex: ACI/N/MALE, Target Tissue: Type of Lesion: LIVER: TUMOR, Dose [Carcinogen]: 200 PPM IN DIET FOR 16 WK) is listed as 10/10 (100%), 1/10 (10%), 90%, p=0.00006, the “tumour outcome (control, treated, inhibition, significance)” value (Carcinogen: 4-(METHYLNITROSAMINO)-1-(3-PYRIDYL-1-BUTANONE, 64091-91-4, 25 MG/KG IN DIET FOR 25 WK BEGINNING 2 WK PRIOR TO CARCINOGEN TREATMENT (STUDY DURATION: 25 WK), Species: MOUSE, Strain/Sex: STRAIN-A/FEMALE, Target Tissue: Type of Lesion: FORESTOMACH: TUMOR, Dose [Carcinogen]: 9.1 MG IN DRINKING WATER FOR 7 WK) is listed as 7/25 (28%), 2/24 (8%), 71%, not significant and the “tumour outcome (control, treated, inhibition, significance)” value (Carcinogen: 7,12-DIMETHYLBENZ[A]ANTHRACENE, 57-97-6, 0.01% IN HIGH-FAT (20% SOYBEAN OIL) DIET FOR 20 WK BEGINNING 1 WK POST CARCINOGEN DOSE (STUDY DURATION: 21 WK), Species: RAT, Strain/Sex: SPRAGUE-DAWLEY/FEMALE, Target Tissue: Type of Lesion: MAMMARY GLAND: ADENOCARCINOMA, Dose [Carcinogen]: 5 MG ONCE) is listed as 17/20 (85%), 19/21 (90%), -6%, not significant. For the same compound, the “tumour outcome (control, treated, inhibition, significance)” value (Carcinogen: 7,12-DIMETHYLBENZ[A]ANTHRACENE, 57-97-6, 0.01% IN LOW-FAT (0.5% SOYBEAN OIL) DIET FOR 20 WK BEGINNING 1 WK POST CARCINOGEN DOSE (STUDY DURATION: 21 WK), Species: RAT, Strain/Sex: SPRAGUE-DAWLEY/FEMALE, Target Tissue: Type of Lesion: MAMMARY GLAND: ADENOCARCINOMA, Dose [Carcinogen]: 5 MG ONCE) was 10/18 (56%), 9/20 (45%), 20%, not significant, the “tumour outcome (control, treated, inhibition, significance)” value (Carcinogen: AZOXYMETHANE, 25843-45-2, 25 PPM IN DIET BEGINNING 1 WK POST CARCINOGEN DOSE FOR DURATION OF STUDY (STUDY DURATION: 56 WK), Species: RAT, Strain/Sex: F344/MALE, Target Tissue: Type of Lesion: COLON: ADENOCARCINOMA, Dose [Carcinogen]: 29.6 MG/KG IN NORMAL SALINE ONCE) was 17/30 (57%), 10/30 (33%), 41%, not calculated and the “tumour outcome (control, treated, inhibition, significance)” value (Carcinogen: AZOXYMETHANE, 25843-45-2, 25 PPM IN DIET BEGINNING 1 WK POST CARCINOGEN DOSE FOR DURATION OF STUDY (STUDY DURATION: 56 WK), Species: RAT, Strain/Sex: F344/MALE, Target Tissue: Type of Lesion: COLON: ADENOMA, Dose [Carcinogen]: 29.6 MG/KG IN NORMAL SALINE ONCE) was 11/30 (37%), 16/30 (53%), -43%, not calculated. The “tumour outcome (control, treated, inhibition, significance)” value (Carcinogen: AZOXYMETHANE, 25843-45-2, 25 PPM IN DIET BEGINNING 1 WK POST CARCINOGEN DOSE FOR DURATION OF STUDY (STUDY DURATION: 56 WK), Species: RAT, Strain/Sex: F344/MALE, Target Tissue: Type of Lesion: SMALL INTESTINE: ADENOCARCINOMA, Dose [Carcinogen]: 29.6 MG/KG IN NORMAL SALINE ONCE) was 10/30 (33%), 7/30 (23%), 30%, not calculated, the “tumour outcome (control, treated, inhibition, significance)” value (Carcinogen: AZOXYMETHANE, 25843-45-2, 25 PPM IN DIET BEGINNING 1 WK POST CARCINOGEN DOSE FOR DURATION OF STUDY (STUDY DURATION: 56 WK), Species: RAT, Strain/Sex: F344/MALE, Target Tissue: Type of Lesion: SMALL INTESTINE: ADENOMA, Dose [Carcinogen]: 29.6 MG/KG IN NORMAL SALINE ONCE) was 1/30 (3%), 0/30 (0%), 100%, not significant and the “tumour outcome (control, treated, inhibition, significance)” value (Carcinogen: AZOXYMETHANE, 25843-45-2, 75 PPM IN DIET BEGINNING 1 WK POST CARCINOGEN DOSE FOR DURATION OF STUDY (STUDY DURATION: 56 WK), Species: RAT, Strain/Sex: F344/MALE, Target Tissue: Type of Lesion: COLON: ADENOCARCINOMA, Dose [Carcinogen]: 29.6 MG/KG IN NORMAL SALINE ONCE) was 17/30 (57%), 6/30 (20%), 65%, p<0.05. For the same compound, the “tumour outcome (control, treated, inhibition, significance)” value (Carcinogen: AZOXYMETHANE, 25843-45-2, 75 PPM IN DIET BEGINNING 1 WK POST CARCINOGEN DOSE FOR DURATION OF STUDY (STUDY DURATION: 56 WK), Species: RAT, Strain/Sex: F344/MALE, Target Tissue: Type of Lesion: COLON: ADENOMA, Dose [Carcinogen]: 29.6 MG/KG IN NORMAL SALINE ONCE) was 11/30 (37%), 14/30 (47%), -27%, not calculated, the “tumour outcome (control, treated, inhibition, significance)” value (Carcinogen: AZOXYMETHANE, 25843-45-2, 75 PPM IN DIET BEGINNING 1 WK POST CARCINOGEN DOSE FOR DURATION OF STUDY (STUDY DURATION: 56 WK), Species: RAT, Strain/Sex: F344/MALE, Target Tissue: Type of Lesion: SMALL INTESTINE: ADENOCARCINOMA, Dose [Carcinogen]: 29.6 MG/KG IN NORMAL SALINE ONCE) was 10/30 (33%), 9/30 (30%), 10%, not calculated and the “tumour outcome (control, treated, inhibition, significance)” value (Carcinogen: AZOXYMETHANE, 25843-45-2, 75 PPM IN DIET BEGINNING 1 WK POST CARCINOGEN DOSE FOR DURATION OF STUDY (STUDY DURATION: 56 WK), Species: RAT, Strain/Sex: F344/MALE, Target Tissue: Type of Lesion: SMALL INTESTINE: ADENOMA, Dose [Carcinogen]: 29.6 MG/KG IN NORMAL SALINE ONCE) was 1/30 (3%), 2/30 (7%), -133%, not calculated. The “tumour outcome (control, treated, inhibition, significance)” value (Carcinogen: AZOXYMETHANE, 25843-45-2, 75 PPM IN THE DIET FOR 28 WK BEGINNING 2 WK PRIOR TO CARCINOGEN TREATMENT (STUDY DURATION: 30 WK), Species: RAT, Strain/Sex: F344/MALE, Target Tissue: Type of Lesion: COLON: TUMOR, Dose [Carcinogen]: 15 MG/KG BW 1/WK FOR 2 WK) was 20/43 (47%), 19/56 (34%), 28%, p<0.05 and the “tumour outcome (control, treated, inhibition, significance)” value (Carcinogen: AZOXYMETHANE, 25843-45-2, 150 PPM IN DIET BEGINNING 1 WK POST CARCINOGEN DOSE FOR DURATION OF STUDY (STUDY DURATION: 56 WK), Species: RAT, Strain/Sex: F344/MALE, Target Tissue: Type of Lesion: COLON: ADENOCARCINOMA, Dose [Carcinogen]: 29.6 MG/KG IN NORMAL SALINE ONCE) was 17/30 (57%), 7/30 (23%), 59%, p<0.05.
